Assay results taken from PMC9218946, “Identification of a Subtype-Selective Allosteric Inhibitor of GluN1/GluN3 NMDA Receptors” (Frontiers in Pharmacology, 2022).

Key:
[1] = target: T1, chimera GluN3A^670-673 MWPL/LEPF (UniProt Q05586+Q9R1M7, L673F/M670L/W671E); assay: Whole-cell patch-clamp on transiently transfected CHO cells, GluN3A chimera; type: cell-based
T1 construct: expressed in transfected cells; host or cells: CHO, transient
Procedure: (§1) To establish GluN1/GluN3A stable cell lines, the human GluN1-1a (GenBank: NP_015566.1) and the rat GluN3A (GenBank: NP_612555.1) genes were subcloned into the pcDNA5-FRT-To and pcDNA3.1 vectors, respectively. An EGFP tag was added to the C-terminus of GluN1 or GluN3A using a T2A linker for identification of transfected cells during transient transfection. Point mutations were introduced by site-directed mutagenesis using PrimeSTAR (Takara). The human GluN2A (GenBank: NP_000824.1) gene was subcloned into the pcDNA3.1 vector. The chimeras GluN3A^670-673 MWPL/LEPF and GluN2A^550-553 LEPF/MWPL were generated using In-Fusion HD Cloning kits (Takara). All constructs were confirmed by DNA sequencing (Beijing Genomics Institute).
(§2) The Flp-in T-Rex 293 cell lines (Invitrogen), stably expressing GluN1/GluN3A were grown in DMEM basal medium (Gibco) supplemented with 10% fetal bovine serum (FBS, Invitrogen), 15 μg/ml blasticidin S (Invitrogen), 50 μg/ml hygromycin B (Invitrogen) and 500 μg/ml G418 (Gibco). Expression in cell lines was induced with 1 μg/ml doxycycline (Invitrogen) 24–28 h prior to the experiments. Chinese hamster ovary (CHO) cells were grown in DMEM-F12 basal medium (Gibco) supplemented with 10% FBS. In the study on the action sites of WZB117, all whole-cell patch-clamp recordings were performed on CHO cells. […]

[2] = tested on: GluN1/GluN3A with mutations in the pre-M1 region of the GluN1 subunit; assay: Whole-cell patch-clamp on transiently transfected CHO cells, GluN1 pre-M1 alanine mutants; type: cell-based
Procedure: as §1, §2

GluN2-containing NMDARs = assay: Whole-cell patch-clamp, NMDA-induced native currents in acutely isolated hippocampal neurons; type: cell-based, rat; conditions: 10 μM WZB117
Procedure: (§3) Hippocampal neurons were obtained from Sprague-Dawley rats (aged P7-14). Briefly, the isolated hippocampal tissues were cut into approximately […] slices along the sagittal plane and were digested with 3 mg/ml proteinase (Sigma-Aldrich) at 32°C for 8 min. Then 1 mg/ml bovine serum albumin (Sangon Biotech) and 1 mg/ml trypsin inhibitor (Sigma-Aldrich) were used to stop the digestion. A few slices of the hippocampus were gently blown into single cells with the dissecting solution, then transferred to a dish and left to rest for 20 min before experiments. The dishes were preprocessed. Essentially, the bottom of the dish was covered with discarded cell suspension the day before the experiment and was washed and dried the next day, which prevented the neurons from sticking to the bottom too tightly. The dissecting solution contained (in mM): 82 Na2SO4, 30 K2SO4, 5 MgCl2, 1 Na pyruvate, 10 HEPES, and 20 glucose. The pH was adjusted to 7.2 using NaOH ([Xie et al., 2020]).
(§4) Whole-cell patch-clamp recordings were performed at room temperature (22–25°C) using an EPC-10 amplifier and Patch Master Software (HEKA). Pipettes were pulled from borosilicate glass capillaries (World Precision Instruments), and the resistances were 3–5 MΩ when filled with the intracellular solution. […]

KA receptors = assay: Whole-cell patch-clamp, KA-induced currents in acutely isolated hippocampal neurons; type: cell-based, rat; conditions: 10 μM WZB117
Procedure: as §3, §4

T1 sequence (Q9R1M7 24-1135 M670L/W671E/L673F, other chains not shown): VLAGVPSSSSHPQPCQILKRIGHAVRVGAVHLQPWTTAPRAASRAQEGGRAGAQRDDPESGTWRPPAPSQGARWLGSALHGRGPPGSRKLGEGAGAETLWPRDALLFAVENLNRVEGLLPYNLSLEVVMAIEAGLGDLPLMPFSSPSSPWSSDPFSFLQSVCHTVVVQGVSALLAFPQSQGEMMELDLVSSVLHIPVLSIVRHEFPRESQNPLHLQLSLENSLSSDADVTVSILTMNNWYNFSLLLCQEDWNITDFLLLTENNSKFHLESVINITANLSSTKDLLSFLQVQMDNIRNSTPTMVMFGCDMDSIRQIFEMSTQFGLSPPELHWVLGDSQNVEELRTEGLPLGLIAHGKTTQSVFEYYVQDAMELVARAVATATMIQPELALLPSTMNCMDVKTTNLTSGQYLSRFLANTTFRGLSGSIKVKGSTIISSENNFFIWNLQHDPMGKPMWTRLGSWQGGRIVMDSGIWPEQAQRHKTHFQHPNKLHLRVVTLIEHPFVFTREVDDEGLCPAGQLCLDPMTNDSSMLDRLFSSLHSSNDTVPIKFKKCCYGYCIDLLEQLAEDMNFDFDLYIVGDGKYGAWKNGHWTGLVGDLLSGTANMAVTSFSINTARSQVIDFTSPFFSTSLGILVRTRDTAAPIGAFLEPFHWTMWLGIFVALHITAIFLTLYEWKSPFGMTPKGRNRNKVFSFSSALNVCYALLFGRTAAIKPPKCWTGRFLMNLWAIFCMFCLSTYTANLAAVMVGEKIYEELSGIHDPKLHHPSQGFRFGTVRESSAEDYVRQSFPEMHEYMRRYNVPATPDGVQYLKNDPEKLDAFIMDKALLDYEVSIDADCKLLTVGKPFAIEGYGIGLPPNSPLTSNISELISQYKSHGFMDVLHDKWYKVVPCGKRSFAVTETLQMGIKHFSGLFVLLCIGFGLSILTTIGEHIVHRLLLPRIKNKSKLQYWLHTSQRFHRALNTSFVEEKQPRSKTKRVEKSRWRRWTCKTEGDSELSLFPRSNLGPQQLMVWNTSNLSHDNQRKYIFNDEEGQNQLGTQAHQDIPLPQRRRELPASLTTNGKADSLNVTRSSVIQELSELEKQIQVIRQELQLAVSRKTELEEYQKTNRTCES

O=C(Oc1cccc(F)c1OC(=O)c1cccc(O)c1)c1cccc(O)c1 [WZB117, 3-fluoro-1,2-phenylene bis(3-hydroxybenzoate)]
inhibition on chimera [1]: greatly reduced | influence of mutations on activity [2]: none of the mutations in the pre-M1 region of the GluN1 subunit showed a detectable influence | I drug/I control (GluN2-containing NMDARs): 0.73 ± 0.01 | effect on KA-induced currents (KA receptors): little effect
